{"source": "patent US10888549B2", "about": "“Pharmaceutical agents targeting cancer stem cells” (THE JOHNS HOPKINS UNIVERSITY, priority 2016, dated 2021)", "key": {"SOX2": {"system": "SOX2", "assay": "SOX2 expression by western blotting / flow cytometry", "assay_type": "cell-based, human", "details": "basal-type cells", "description": "(§1) Whole cell lysates were extracted using RIPA buffer (Thermo Scientific) supplemented with 10 μL/mL Halt™ Protease Inhibitor Cocktail Kit (Life Technologies) and 30 μL/mL Halt™ Phosphatase Inhibitor Cocktail Kit (Life Technologies). The protein concentrations were determined using a Pierce™ BCA Protein Assay Kit (Life Technologies), and the protein were separated on NuPAGE® 4-12% Bis-Tris Gel (Life Technologies) according to the manufacturer's protocol. COX2 (D5H5), NANOG (D73G4), OCT4 (D7O5Z), CD133 (A3G6K), Snail (C15D3), ZEB1 (D80D3), Vimentin (D21H3), CDH2 (D4R1H), CDH1 (24E10), p-EGFR (D7A5), EGFR (D38B1), p-AKT (D9E), AKT (cat #, 9272), p-ERK (D13.14.4E), ERK (137F5), p-YAP1 (D9W2I), p-Src (cat #, 2101), Src (36D10), DNMT1 (D63A6), DNMT3A (D23G1), and DNMT3B (D7O7O) antibodies were obtained from Cell Signaling Technology (Danvers, Mass., USA), except for SOX2 (EPR3131; Abcam, Cambridge, USA), YAP1 (ab52771; Abcam), CD24 (cat #, AF5247-SP; R&D Systems, Minneapolis USA) and β-actin (A2228; Sigma-Aldrich). Secondary horseradish peroxidase (HRP)-conjugated antibodies were obtained from Cell Signaling Technology, and chemiluminescent detection of HRP-labeled antibodies was performed using Amersham ECL Prime Western Blotting Detection Reagent (GE Healthcare, Piscataway, USA). As loading control, β-actin was used.\nFor extracellular staining, cells (1×10^6/100 μL stain buffer) were incubated with PE-Vio770-conjugated anti-human CD133 (293C3; Miltenyi Biotec, Auburn, USA) or PE-conjugated anti-human CD24 antibody (cat #, 560991; BD Biosciences) for 30 min at 4° C. in dark. PE-Vio770-conjugated Isotype (cat #, 130-098-563; Miltenyi Biotec) and PE-conjugated IgG2a, κ Isotype (cat #, 555574; BD Biosciences) were used as control for CD133 and CD24 staining, respectively. Staining for intracellular SOX2 was carried out using the BD Cytofix/Cytoperm Fixation/Permeabilization Kit (BD Biosciences) according to manufacturer's protocol. The cells were incubated with Alexa Fluor 647-conjugated anti-SOX2 antibody (cat #, 560302; BD Biosciences) for 40 min at 4° C. in dark. Alexa Fluor 647-conjugated anti-IgG2a, κ Isotype (cat #, 558053; BD Biosciences) was used as control. Data were acquired on a BD FACSCalibur flow cytometer (BD Biosciences) using BD CellQuest Pro software (BD Biosciences) and analyzed with FlowJo software v10.1 (Tree Star, Ashland, USA)."}, "EGFR-MAPK signaling": {"system": "EGFR-MAPK signaling", "assay": "Western blotting in xenograft tumors that acquired resistance to erlotinib", "assay_type": "in vivo, mice", "details": "xenograft tumors with acquired resistance to EGFR inhibitor", "description": "(§2) Whole cell lysates were extracted using RIPA buffer (Thermo Scientific) supplemented with 10 μL/mL Halt™ Protease Inhibitor Cocktail Kit (Life Technologies) and 30 μL/mL Halt™ Phosphatase Inhibitor Cocktail Kit (Life Technologies). […] Secondary horseradish peroxidase (HRP)-conjugated antibodies were obtained from Cell Signaling Technology, and chemiluminescent detection of HRP-labeled antibodies was performed using Amersham ECL Prime Western Blotting Detection Reagent (GE Healthcare, Piscataway, USA). As loading control, β-actin was used.\nFor celecoxib and/or VP treatment, celecoxib (5 mg/kg) was administered via intraperitoneal (i.p.) injection once a day (17), and VP (50 mg/kg) was administered via i.p. every other day (18). […] For GEM and CDDP (GC) treatment (i.p.), CDDP (6 mg/kg) was only applied after the first GEM (60 mg/kg) treatment on day 2, followed by three consecutive treatments of GEM on day 5, 8 and 11 (17). The next cycle was started on day 18, and the treatment was continued until tumor reached 2 cm in diameter. For erlotinib treatment, the mice were treated once a day, 6 days per week, by oral gavage with erlotinib (100 mg/kg) or control (PBS containing 0.5% methyl cellulose (Sigma-Aldrich) and 0.1% TWEEN 80) (20). Tumor size was measured at least every three days. […]"}, "YAP1": {"system": "YAP1", "assay": "YAP1 expression by western blotting", "assay_type": "cell-based, human", "description": "as §1"}, "COX2": {"system": "COX2", "assay": "COX2 expression by western blotting", "assay_type": "cell-based, human", "description": "as §2"}, "[1]": {"system": "AKT and extracellular signal-related kinase (ERK)", "assay": "Western blotting of AKT and ERK activation", "assay_type": "cell-based, human", "details": "basal-type cells; 1 μM erlotinib", "description": "as §1"}, "urothelial CSCs": {"system": "urothelial CSCs", "assay": "Sphere formation assay (CSC properties)", "assay_type": "cell-based, human", "details": "basal-type cells; 1 μM erlotinib for 72 hours", "description": "Sphere formation was induced by culturing cells (2×10^4/well) in DMEM/Ham's F12 50/50 Mix (Mediatech) supplemented with B-27 (Life Technologies), 20 ng/mL FGF-basic (Peprotech), 20 ng/mL EGF (Peprotech). Cell culture was performed in ultra-low attachment 6 well plates (Corning, Lowell, USA) for 10 days. The medium was replaced every other day. Sphere formation was evaluated using the inverted phase-contrast microscope, and single sphere with a diameter larger than 100 μm was counted using NIS-Elements Microscope Imaging Software. To redifferentiate spheres, spheres were plated in standard growth medium with 10% FBS in dishes supporting cell attachment, and incubated for 7 days. For self-renewal assay, primary spheres were collected by gentle centrifugation (5 min at 400×g), dissociated with Stempro Accutase Cell Dissociation Reagent (Life Technologies), and mechanically disrupted with a pipette. The cell suspension was sieved through 40 μm cell strainer cap filter to achieve a single-cell suspension, and then equal numbers of alive cells were plated in ultralow attachment plates to generate the second spheres. Again, spheres were counted on day 14 and digested to generate the third Spheres. All the experiments were performed in triplicate and repeated at least three times."}}}
{"smiles": "C#Cc1cccc(Nc2ncnc3cc(OCCOC)c(OCCOC)cc23)c1", "note": "[erlotinib, Erlotinib]", "values": [{"measurement": "SOX2 expression", "setting": "SOX2", "result": "decreased at 1 hour after treatment with erlotinib and then gradually increased"}, {"measurement": "EGFR-MAPK signaling", "setting": "EGFR-MAPK signaling", "result": "remained suppressed"}, {"measurement": "YAP1 expression", "setting": "YAP1; basal-type cells", "result": "continuously decreased"}, {"measurement": "YAP1 expression", "setting": "YAP1; non-basal-type cells", "result": "did not affect"}, {"measurement": "COX2 expression", "setting": "COX2; basal-type cells", "result": "increased"}, {"measurement": "COX2 expression", "setting": "COX2; non-basal-type cells", "result": "did not affect"}, {"measurement": "activation of AKT and extracellular signal-related kinase (ERK)", "setting": "[1]", "result": "suppressed activation"}, {"measurement": "number of spheres", "setting": "urothelial CSCs", "result": "enriched number of spheres"}]}
